Results as given in article PMC9119314 (Frontiers in Pharmacology, 2022).

How the values were obtained:
A2780/WT cells = test: Chemosensitivity MTT assay, A2780 wild type; format: cell-based, human; details: Homo sapiens, A2780, 96 h, ± SE, read-out: Activity against A2780/WT cells, IC50
Procedure: (§1) The chemosensitivity of compounds 3–6 was assessed in the wild-type immortalized human ovarian adenocarcinoma cell line A2780 and its daughter cell lines, which are resistant to the standard cancer chemotherapeutics doxorubicin (A2780/ADR) and cisplatin (A2780/CIS, all cell lines from ECACC, Salisbury, United Kingdom). A modified MTT assay was used ([Shnyder et al., 2008]). Cells (2 × 10^4/ml) were inoculated into each well of a 96-well plate and incubated for 24 h at 37°C in a humidified atmosphere containing 5% CO2. Compounds were then added at a range of concentrations to each well, and the plates were then incubated for a further 96 h. After 96 h, the culture medium was removed and 200 μL of 0.5 mg ml^–1 MTT solution (Sigma) in the complete medium was added to each well. Following a further 4 h incubation, the solution was removed from each well and 150 μL of DMSO was added to solubilize the formazan crystals resulting from MTT conversion. The absorbance values for the resulting solutions were read at 540 nm on an Azure 96-well microplate reader (Azure Biosynstems Inc.), and the cell survival was calculated as the absorbance of treated cells divided by the control.

A2780/cis cells = test: Chemosensitivity MTT assay, cisplatin-resistant A2780/CIS; format: cell-based, human; details: Homo sapiens, A2780cis, 96 h, ± SE, read-out: Activity against A2780/cis cells, IC50
Procedure: as §1

Hep G2-A16-CD81 cells = test: Hep G2 cellular toxicity counter-screen (CellTiterGlo); format: cell-based; details: HepG2-A16-CD81, no sporozoites, ± SE, read-out: Activity against Hep G cells
Procedure: (§2) Briefly, 3000 Hep G2-A16-CD81 cells/well were seeded in 1536-well plates (Greiner Bio). 50 nL of the test and control compound diluted in DMSO was added and incubated for 24 h. […] The plates were centrifuged for 5 min at 330 × g and incubated at 37°C. Forty-eight hours post infection, 2 μL of luciferin reagent (Promega BrightGlo) was added to each well, and the luciferase activity was detected using a Perkin Elmer Envision plate reader. […] To counter-screen for cellular toxicity, Hep G2-A16-CD81 cells were seeded as above for the sporozoite liver-stage assay but in the absence of sporozoites. Toxicity measurements were performed by adding Promega CellTiterGlo® (2 μL), followed by luminescence measurements. Curve fitting was done as described above using puromycin (25 μM) as a positive control and DMSO as negative control wells.

P. falciparum 3D7 = test: In vitro antiplasmodial activity, P. falciparum 3D7 (SYBR Green I); format: cell-based; details: Plasmodium falciparum; chloroquine-sensitive strain 3D7, 48 h; read-out: Activity against P. falciparum 3D7, IC50
Procedure: P. falciparum (3D7 clone) and P. knowlesi (A1-H.1 clone) were maintained in culture in RPMI 1640 supplemented with 25 mM HEPES, 25 mM NaHCO3, 10 mM D-glucose, 2 mM L-glutamine, 50 mg/L hypoxanthine, 25 mg/L gentamicin sulfate, 5 g/L Albumax II, and 10% (v/v) equine serum (Thermo Fisher Scientific, 26-050-088). The P. falciparum (3D7) and P. knowlesi (A1-H.1) parasites were grown in human A^+ red blood cells (National Health Blood and Transplant, United Kingdom). The parasites were incubated in sealed flasks at 37°C under a culture gas mixture of 96% N2, 3% CO2, and 1% O2. ([van Schalkwyk et al., 2019]). The compounds were initially dissolved in DMSO prior to diluting in RPMI. All experiments were initiated using unsynchronized parasites with both the parasitemia and hematocrit set to 1%. Drug susceptibility assays were set up in 96-well, flat-bottom microplates in a final volume of 200 μL, as described previously ([van Schalkwyk et al., 2017]). The controls were included for the background fluorescence (0% viability; parasites exposed to a supralethal 10 μM chloroquine concentration) and 100% growth (parasites in drug-free wells). The plates were incubated for one complete life cycle (27 h for P. knowlesi or 48 h for P. falciparum in vitro) at 37°C in a modular incubation chamber (Billups-Rothenburg Inc.) under the culture gas. Upon termination of the assay, the plates were stored at −20°C overnight. The SYBR Green I fluorescent method was used to measure parasite survival ([Bennett et al., 2004]; [Smilkstein et al., 2004]). After the microplates were thawed, 100 μL from each well was transferred into a duplicate plate. To this was added 100 μL of SYBR green solution [SYBR Green I (Thermo Fisher Scientific, S7563), diluted 1:5000 in a lysis buffer made of 20 mM Tris, 5 mM EDTA, 0.008% (w/v) saponin, 0.08% (v/v) Triton X-100, pH 7.5]. The plates were stored in the dark for 1 h before fluorescence was read at a 490 nm excitation wavelength and a 520 nm emission wavelength on a Spectramax M3 microplate reader (Molecular Devices) ([van Schalkwyk et al., 2017]). The background fluorescence (wells with parasites at 0% viability) was subtracted from all drug assay wells, and the parasite proliferation was determined as a percentage of the fluorescence in the drug-free control wells.

P. berghei sporozoites = test: P. berghei liver-stage assay (sporozoites in Hep G2-A16-CD81 cells, luciferase); format: cell-based, Plasmodium berghei; details: for IC50: Plasmodium berghei, HepG2-A16-CD81, sporozoites in Hep G2-A16-CD81 cells, 48 h post infection, ± SE, read-out: Activity against the P. berghei liver stage, IC50
Procedure: as §2

A2780/ADR cells = test: Chemosensitivity MTT assay, doxorubicin-resistant A2780/ADR; format: cell-based; details: Homo sapiens, 96 h, ± SE, read-out: Activity against A2780/ADR cells, IC50
Procedure: as §1, with “A” for “The chemosensitivity of compounds 3–6 was assessed in the wild-type immortalized human ovarian adenocarcinoma cell line A2780 and its daughter cell lines, which are resistant to the standard cancer chemotherapeutics doxorubicin (A2780/ADR) and cisplatin (A2780/CIS, all cell lines from ECACC, Salisbury, United Kingdom). A”

Row | Compound | IC50 (A2780/WT cells) | IC50 (A2780/cis cells) | IC50 (Hep G2-A16-CD81 cells) | IC50 (P. falciparum 3D7) | IC50 (P. berghei sporozoites) | Selectivity index (SI), P. berghei liver stage with respect to Hep G cells (P. berghei sporozoites) | IC50 (A2780/ADR cells)
1 | C[n+]1c2ccccc2cc2[n-]c3c(Br)cc(Br)cc3c21 [Compound 4, 7,9-Dibromocryptolepine] | 200 ± 580 nM | 580 ± 100 nM | 6790 ± 920 nM | 760 ± 60 nM | 5820 ± 260 nM | 1.17 | 310 ± 60 nM
2 | C[n+]1c2ccccc2cc2[n-]c3ccc(I)cc3c21 [Compound 5, 7-iodocryptolepine] | 60 ± 10 nM | 310 ± 190 nM | 6700 ± 500 nM | 92 ± 20 nM | 14600 ± 420 nM | 0.46 | 180 ± 10 nM
3 | C[n+]1c2ccccc2cc2[n-]c3c(I)cc(I)cc3c21 [Compound 6, 7,9-diiodocryptolepine] | 130 ± 70 nM | 280 ± 50 nM | 28200 ± 4100 nM | 660 ± 60 nM | 6130 ± 620 nM | 4.6 | 180 ± 20 nM
